Measured values reported in ChEMBL document CHEMBL1201862, “PubChem BioAssay data set” (2004).
Where a name gives a salt, the structure may show the parent alone.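 Results reflect a 48-hour exposure of cells in 96-well plates to compound at five concentrations. The concentration for 50% growth inhibition is given as GI50.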 The source made the active and inactive calls. Rule as the data show it: active = GI50 up to about 1.1 µM and inactive = higher.

Experiments:
Test in all cases: NCI tumour cell line growth inhibition, 48 h
[1] = tested on: M19-MEL
[2] = tested on: SNB-78
[3] = tested on: KM-20L2
[4] = tested on: DMS-273
[5] = tested on: DMS-114
[6] = tested on: HOP-18
[7] = tested on: DLD-1
[8] = tested on: RXF 631
[9] = tested on: XF498

Structure (SMILES) | GI50 [1] | GI50 [2] | GI50 [3] | GI50 [4] | GI50 [5] | GI50 [6] | GI50 [7] | GI50 [8] | GI50 [9]
CC1(C)NC(=O)N(CCCCCCN2C(=O)NC(C)(C)C2=O)C1=O | > 100 µM (inactive) | > 100 µM (inactive) | > 100 µM (inactive) | > 100 µM (inactive) | > 100 µM (inactive) | > 100 µM (inactive) | > 100 µM (inactive) |  | 
C=C(C)C1CC2C(C)=C(OC(C)=O)C1n1c(=O)c3cc4ccccc4cc3c(=O)n12 (configuration not stated) | 74 µM (inactive) | 95.9 µM (inactive) | > 93.5 µM (inactive) | 54.2 µM (inactive) | 65.8 µM (inactive) | > 100 µM (inactive) | 53.1 µM (inactive) |  | 
O=C(CO)CC(=O)C(=O)Nc1ccccc1 | > 100 µM (inactive) | > 100 µM (inactive) | > 100 µM (inactive) | > 100 µM (inactive) | > 100 µM (inactive) | > 100 µM (inactive) | > 100 µM (inactive) | 46 µM (inactive) | 
CCCCCCCCCCCCCCCC(=O)OCC1OC(n2cc(F)c(=O)[nH]c2=O)C(NC(=O)OCc2ccccc2)C(O)C1O (configuration not stated) | 20.3 µM (inactive) | 20.6 µM (inactive) | 22.3 µM (inactive) | 16.8 µM (inactive) | 14 µM (inactive) | 16.8 µM (inactive) |  | 18.3 µM (inactive) | 16.3 µM (inactive)
CCOC(=O)C1(C)CCC(C(=O)OC)C1=O (configuration not stated) | 73.3 µM (inactive) | > 100 µM (inactive) | > 100 µM (inactive) |  | 19.8 µM (inactive) | > 100 µM (inactive) | 57.4 µM (inactive) |  | > 100 µM (inactive)
O=C1C2Cc3ccccc3CN2C(=O)N1CCN1CCCC1 (configuration not stated) | > 100 µM (inactive) |  | > 100 µM (inactive) | > 100 µM (inactive) | > 100 µM (inactive) |  | > 100 µM (inactive) | > 100 µM (inactive) | > 100 µM (inactive)
COc1cc(/C=C/C(=N\NC(=O)c2ccccc2)c2sc(Nc3ccc(Cl)c(Cl)c3)nc2C)ccc1O | 28.2 µM (inactive) | 29.3 µM (inactive) | 33.4 µM (inactive) |  | 23.8 µM (inactive) | 24.1 µM (inactive) | 28.7 µM (inactive) | 20.6 µM (inactive) | 32.9 µM (inactive)
O=c1/c(=C/c2ccc3c(c2)OCO3)sc2nnc(-c3ccco3)n12 | > 100 µM (inactive) | > 100 µM (inactive) | > 100 µM (inactive) | > 100 µM (inactive) | > 100 µM (inactive) | > 100 µM (inactive) | > 100 µM (inactive) |  | > 100 µM (inactive)
Brc1ccc(-c2nnc(-c3nn(-c4ccccc4)c4nc5ccccc5nc34)o2)cc1 |  | > 100 µM (inactive) | > 100 µM (inactive) | 81.3 µM (inactive) | 26.7 µM (inactive) | > 100 µM (inactive) | > 100 µM (inactive) | > 100 µM (inactive) | 
CSc1nc(C)cc(=O)n1C1OC(COC(C)=O)C(OC(C)=O)C(OC(C)=O)C1OC(C)=O (configuration not stated) | > 100 µM (inactive) |  | > 100 µM (inactive) | > 100 µM (inactive) | > 100 µM (inactive) |  | > 100 µM (inactive) |  | > 100 µM (inactive)
COc1ccc(C[P+]2(c3ccccc3)CCCCC2)cc1.O=[N+]([O-])c1ccc(C[P+]2(c3ccccc3)CCCCC2)cc1.[O-][Cl+3]([O-])([O-])[O-].[O-][Cl+3]([O-])([O-])[O-] |  |  |  | 60 µM (inactive) | 36.1 µM (inactive) | 15.4 µM (inactive) | > 100 µM (inactive) | > 100 µM (inactive) | > 100 µM (inactive)
Cc1n(-c2ccccc2)c2c([n+]1Cc1ccc([N+](=O)[O-])cc1)C(=O)c1ccccc1C2=O | 1.16 µM (inactive) | 2.88 µM (inactive) | 3.23 µM (inactive) | 1.92 µM (inactive) | 0.386 µM (active) | 7.19 µM (inactive) | 5.43 µM (inactive) |  | 
Clc1ccc2c(c1)C1C(CO2)C(c2ccccc2)=NN1c1ccccc1 (configuration not stated) | 26.5 µM (inactive) | 29.9 µM (inactive) | 79.6 µM (inactive) | 28.7 µM (inactive) | 24.6 µM (inactive) | 1.07 µM (active) | 35.1 µM (inactive) |  | 14.9 µM (inactive)
O=[N+]([O-])c1cc(Cl)ccc1S(=O)(=O)c1ccc(Cl)cc1[N+](=O)[O-] | 15 µM (inactive) | 16.1 µM (inactive) | 16.7 µM (inactive) | 14.2 µM (inactive) | 11.3 µM (inactive) | 16.7 µM (inactive) | 15.6 µM (inactive) |  | 
O=C(CCC(=O)Nc1ccc(Cl)c(Cl)c1)CC(=O)c1ccc(F)cc1 | > 100 µM (inactive) | > 100 µM (inactive) | > 100 µM (inactive) | > 100 µM (inactive) | > 100 µM (inactive) | > 100 µM (inactive) | > 100 µM (inactive) | > 100 µM (inactive) | 
CCCCCCCCCC1CC(=O)Oc2cccc(O)c21 (configuration not stated) | 31.3 µM (inactive) | 42 µM (inactive) | 31.3 µM (inactive) | 4.03 µM (inactive) | 15.7 µM (inactive) | 51.4 µM (inactive) | 27.9 µM (inactive) | 0.617 µM (active) | 21.6 µM (inactive)
COc1cc2c(cc1O)CC13CCC(=O)N1CCc1cc(OC)c(O)c-2c13 (configuration not stated) | > 68.1 µM (inactive) | > 68.1 µM (inactive) | > 68.1 µM (inactive) |  | > 68.1 µM (inactive) | > 68.1 µM (inactive) | > 68.1 µM (inactive) | 39.9 µM (inactive) | 
COc1ccc(/C=C/CO)cc1OC | > 100 µM (inactive) | > 100 µM (inactive) | > 100 µM (inactive) | > 100 µM (inactive) | > 100 µM (inactive) |  |  |  | 
O=C1CCC(O)=C1O | > 100 µM (inactive) |  | > 100 µM (inactive) | > 100 µM (inactive) | > 100 µM (inactive) | > 100 µM (inactive) | > 100 µM (inactive) | > 100 µM (inactive) | > 100 µM (inactive)
NCCOCCOCC(=O)O | > 100 µM (inactive) | > 100 µM (inactive) | > 100 µM (inactive) | > 100 µM (inactive) | > 100 µM (inactive) |  |  |  | 
NCCSSCCN [CYSTAMINE HYDROCHLORIDE] | > 100 µM (inactive) | > 100 µM (inactive) | > 100 µM (inactive) | > 100 µM (inactive) | > 100 µM (inactive) | > 100 µM (inactive) | > 100 µM (inactive) | > 100 µM (inactive) | > 100 µM (inactive)
